Patent US20100261630A1, “ANTIMICROBIAL HAND WASH FORMULATIONS” (priority 2006, published 2010)

Test: Patch irritancy test on test subject's skin
Settings: control diluted to 0.2 percent of the original volume into deionized water

## CCCCCCCCCCCCOS(=O)(=O)[O-].[Na+] [Sodium Lauryl Sulfate]
  Classification: Experimental Cumulative
  Irritancy Score: 14918.5
